According to patent US20040127395A1 (priority 2002, published 2004):

Columns and labels:
[1] = target: human histamine H4 receptor (Homo sapiens, UniProt Q9H3N8); assay: biochemical
[2] = test system: mouse bone marrow-derived mast cells; assay: Histamine-induced mast cell chemotaxis in vitro (transwell); type: cell-based; conditions: for inhibition at 1 µM / inhibition at 10 µM: Mus musculus, Mast cell
Procedure: Mast cells were differentiated from bone marrow derived from BALB/c or C57bl/6j mice. Mice were sacrificed by asphyxiation under 95% CO2 and femurs were removed. Bone marrow was aseptically isolated from the femurs. The cells (5×10^5/mL) were cultured at 37° C. with 5% CO2 in culture medium consisting of RPMI with 10% FCS, 0.1 mM non-essential amino acids, 50 μg/mL penicillin/streptomycin and 20% conditioned WEHI-3 medium. Conditioned WEHI-3 medium was prepared from WEHI-3 cells (ATCC), which were cultured in Iscoves Dulbeccos medium with 10% FCS, 4 mM L-glutamine, 1.5 g/L sodium carbonate, 0.05 μM beta-mercaptoethanol and 50 μg/mL penicillin/streptomycin. The filtered supernatant was used as the conditioned WEHI-3 medium. After 16 h in culture, the bone marrow cells were transferred to a new flask. The medium was refreshed once per week. After four weeks, the cells were tested by flow cytometry for IgE receptor and CD117 (c-kit) expression. Mast cells were incubated with anti-DNP IgE (ICN Pharmaceuticals, Costa Mesa, Calif.) or vehicle for 30 min, followed by FITC labeled anti-IgE (Pharmingen) or FITC labeled CD117 (Pharmingen) for 30 min on ice. The cultured mast cells consisted of a homogeneous population which was >99% IgE receptor positive and >99% CD117 positive. Mast cells of four to eight weeks culture time were used for experiments.
Transwells (Costar, Cambridge, Mass.) of a pore size of […] were coated with 100 μL of 100 ng/mL human fibronectin (Sigma) for 2 h at room temperature. […] Mast cells (2×10^5/well) were added to the top chamber. The plates were incubated for 3 h at 37° C. Transwells were removed and the number of cells in the bottom chamber was counted for 60 sec using a flow cytometer.

[3] = test system: human eosinophils; assay: Histamine-induced eosinophil shape change (GAFS); type: cell-based; conditions: for effect on histamine-induced eosinophil shape change / Fold Change: antagonist 10 μM; for Fold Change: eosinophil shape change
Procedure: Human granulocytes were isolated from human blood by a Ficoll gradient. The red blood cells were lysed with 5-10× Qiagen lysis buffer at room temperature for 5-7 min. Granulocytes were harvested and washed once with FACS buffer. The cells were resuspended at a density of 2×10^6 cells/mL in reaction buffer. […] Ten minutes later, the cells were transferred to ice and fixed with 250 μL of ice-cold fixative buffer (2% formaldehyde) for 1 min.

[4] = test system: mast cells in the mouse trachea; assay: Histamine-induced accumulation of mast cells in the mouse trachea in vivo; conditions: 0.1 M histamine aerosol, 20 min on 2 consecutive days

Chain of human histamine H4 receptor (Q9H3N8 whole entry): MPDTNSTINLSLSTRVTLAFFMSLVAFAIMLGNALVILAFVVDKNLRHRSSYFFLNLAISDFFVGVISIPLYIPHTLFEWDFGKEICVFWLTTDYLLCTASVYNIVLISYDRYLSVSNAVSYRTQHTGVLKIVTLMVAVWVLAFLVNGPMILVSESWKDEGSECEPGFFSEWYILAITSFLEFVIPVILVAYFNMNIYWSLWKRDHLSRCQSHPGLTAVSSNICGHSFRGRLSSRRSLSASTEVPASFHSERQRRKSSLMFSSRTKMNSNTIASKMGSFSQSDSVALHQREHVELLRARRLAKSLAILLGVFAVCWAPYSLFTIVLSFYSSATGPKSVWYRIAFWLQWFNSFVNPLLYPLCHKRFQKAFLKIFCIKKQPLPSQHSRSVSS

`CN1CCN(C(=O)c2cc3cccc(Br)c3[nH]2)CC1` [(7-Bromo-1H-indol-2-yl)-(4-methyl-piperazin-1-yl)-methanone] gave a Ki [1] of 55 nM.
With `CN1CCN(C(=O)c2cc3cc(Cl)sc3[nH]2)CC1` [(2-Chloro-6H-thieno[2,3-b]pyrrol-5-yl)-(4-methyl-piperazin-1-yl)-methanone] the inhibition at 1 µM [2] was 103% and the inhibition at 10 µM [2] was 106%.
`O=C(c1nc2cc(Cl)ccc2[nH]1)N1CCNCC1` [(5-Chloro-1H-benzoimidazol-2-yl)-piperazin-1-yl-methanone] gave an inhibition at 1 µM [2] of 8% and an inhibition at 10 µM [2] of 101%.
For `Nc1cccc2cc(C(=O)N3CCNCC3)[nH]c12` [(7-Amino-1H-indol-2-yl)-piperazin-1-yl-methanone], the Ki [1] was 43 nM.
With `CN1CCN(C(=O)c2cc3cc(Cl)cc(Cl)c3[nH]2)CC1` [(5,7-Dichloro-1H-indol-2-yl)-(4-methyl-piperazin-1-yl)-methanone] the Ki [1] was 10 nM.
With `Cc1cc(C)c2[nH]c(C(=O)N3CCN(C)CC3)cc2c1` [(5,7-Dimethyl-1H-indol-2-yl)-(4-methyl-piperazin-1-yl)-methanone] the Ki [1] was 30 nM.
With `CN1CCN(C(=O)c2cc3cc([N+](=O)[O-])ccc3[nH]2)CC1` [(4-Methyl-piperazin-1-yl)-(5-nitro-1H-indol-2-yl)-methanone] the Ki [1] was 46 nM.
Work on `CN1CCN(C(=O)c2cc3cc(F)cc(F)c3[nH]2)CC1` [(5,7-Difluoro-1H-indol-2-yl)-(4-methyl-piperazin-1-yl)-methanone] yielded a Ki [1] of 19 nM and an inhibition at 1 µM [2] of 100%.
For `CC1CN(C(=O)c2cc3scc(Br)c3[nH]2)CCN1` (centres unmarked) [(3-Bromo-4H-thieno[3,2-b]pyrrol-5-yl)-(3-methyl-piperazin-1-yl)-methanone], the inhibition at 1 µM [2] was 0% and the inhibition at 10 µM [2] was 0%.
In the case of `Cc1cccc2cc(C(=O)N3CCN(C)CC3)[nH]c12` [(7-Methyl-1H-indol-2-yl)-(4-methyl-piperazin-1-yl)-methanone], the Ki [1] is reported as 6.6 nM.
`CN1CCN(C(=O)c2cc3ccc(Cl)cc3[nH]2)CC1` [(6-Chloro-1H-indol-2-yl)-(4-methyl-piperazin-1-yl)-methanone] showed a Ki [1] of 124 nM.
In the case of `Cc1ccc2[nH]c(C(=O)NC3CC4CCC(C3)N4C)nc2c1` (centres unmarked) [5-Methyl-1H-benzoimidazole-2-carboxylic acid(8-methyl-8-aza-bicyclo[3.2.1]oct-3-yl)-amide], the inhibition at 1 µM [2] is reported as 66% and the inhibition at 10 µM [2] is reported as 27%.
Compound `S=C(NC1CCCCC1)N1CCC(c2cnc[nH]2)CC1` [Thioperamide] has an IC50 ([3]; Eosinophil, human eosinophils, read-out: IC50 for inhibition of histamine-induced eosinophil shape change) of 1500 nM.
With `O=C(c1cc2cc(Cl)ccc2[nH]1)N1CCN(CCO)CC1` [(5-Chloro-1H-indol-2-yl)-[4-(2-hydroxy-ethyl)-piperazin-1-yl]-methanone] the Ki [1] was 25 nM.
`CN1CCN(C(=O)c2cc3cc(O)ccc3[nH]2)CC1` [(5-Hydroxy-1H-indol-2-yl)-(4-methyl-piperazin-1-yl)-methanone] gave a Ki [1] of 19 nM.
Work on `CN1CCN(C(=S)c2cc3ccccc3[nH]2)CC1` [(1H-Indol-2-yl)-(4-methyl-piperazin-1-yl)-methanethione] yielded a Ki [1] of 132 nM.
For `O=C(c1cc2cc(Cl)sc2[nH]1)N1CCN2CCCC2C1` (centres unmarked) [(2-Chloro-6H-thieno[2,3-b]pyrrol-5-yl)-(hexahydro-pyrrolo[1,2-a]pyrazin-2-yl)-methanone], the inhibition at 1 µM [2] was 0% and the inhibition at 10 µM [2] was 0%.
In the case of `Cc1cc(Cl)cc2cc(C(=O)N3CCN(C)CC3)[nH]c12` [(5-Chloro-7-methyl-1H-indol-2-yl)-(4-methyl-piperazin-1-yl)-methanone], the Ki [1] is reported as 1 nM, the inhibition at 1 µM [2] is reported as 100% and the inhibition at 10 µM [2] is reported as 97%.
In the case of `CN1CCN(C(=O)c2nc3cc(F)c(F)cc3[nH]2)CC1` [(5,6-Difluoro-1H-benzoimidazol-2-yl)-(4-methyl-piperazin-1-yl)-methanone], the inhibition at 1 µM [2] is reported as 72% and the inhibition at 10 µM [2] is reported as 97%.
With `O=C(c1cc2cc(Cl)ccc2[nH]1)N1CCNCC1` [(5-Chloro-1H-indol-2-yl)-piperazin-1-yl-methanone] the Ki [1] was 10 nM and the inhibition at 1 µM [2] was 99%.
In the case of `CN(C)CCOC(c1ccccc1)c1ccccc1` [diphenhydramine], the “effect on histamine-induced eosinophil shape change” value [3] is reported as “did not alter”.
`CN1CCN(C(=O)c2cc3sc(Cl)cc3[nH]2)CC1` [(2-Chloro-4H-thieno[3,2-b]pyrrol-5-yl)-(4-methyl-piperazin-1-yl)-methanone] showed an inhibition at 1 µM [2] of 92%.
Compound `C[C@H]1CN(C(=O)c2cc3cc(Cl)ccc3[nH]2)CCN1` [(5-Chloro-1H-indol-2-yl)-((S)-3-methyl-piperazin-1-yl)-methanone] has a Ki [1] of 36 nM.
Compound `COc1cccc(-c2ccc3[nH]c(C(=O)N4CCN(C)CC4)cc3c2)c1` [[5-(3-Methoxy-phenyl)-1H-indol-2-yl]-(4-methyl-piperazin-1-yl)-methanone] has a Ki [1] of 145 nM.
`CN1CCN(C(=O)c2cc3cccc(N)c3[nH]2)CC1` [(7-Amino-1H-indol-2-yl)-(4-methyl-piperazin-1-yl)-methanone] gave a Ki [1] of 7 nM and an inhibition at 1 µM [2] of 99%.
Work on `CN1CCN(C(=O)c2cc3ccc(Br)cc3[nH]2)CC1` [(6-Bromo-1H-indol-2-yl)-(4-methyl-piperazin-1-yl)-methanone] yielded a Ki [1] of 188 nM.
Compound `CN1CCN(C(=O)c2cc3cccc(O)c3[nH]2)CC1` [(7-Hydroxy-1H-indol-2-yl)-(4-methyl-piperazin-1-yl)-methanone] has a Ki [1] of 47 nM.
Work on `CN1CCN(C(=O)c2cc3cccc(Cl)c3[nH]2)CC1` [(7-Chloro-1H-indol-2-yl)-(4-methyl-piperazin-1-yl)-methanone] yielded a Ki [1] of 23 nM.
`CN1CCN(C(=O)c2cc3c(Br)cccc3[nH]2)CC1` [(4-Bromo-1H-indol-2-yl)-(4-methyl-piperazin-1-yl)-methanone] showed a Ki [1] of 40 nM.
`CN1CCN(C(=O)c2cc3cc(Br)ccc3o2)CC1` [(5-Bromo-benzofuran-2-yl)-(4-methyl-piperazin-1-yl)-methanone] gave a Ki [1] of 95 nM.
`CN1CCN(C(=O)c2cc3ccc(O)cc3[nH]2)CC1` [(6-Hydroxy-1H-indol-2-yl)-(4-methyl-piperazin-1-yl)-methanone] was tested, and the Ki [1] was 32.5 nM.
For `C[C@@H]1CN(C(=O)c2cc3cc(Cl)ccc3[nH]2)CCN1` [(5-Chloro-1H-indol-2-yl)-((R)-3-methyl-piperazin-1-yl)-methanone], the Ki [1] was 34 nM.
For `CC1CN(C(=O)c2cc3ccccc3[nH]2)CCN1` (centres unmarked) [(1H-Indol-2-yl)-(3-methyl-piperazin-1-yl)-methanone], the Ki [1] was 100 nM.
`NCCc1c[nH]cn1` [Histamine, reference compound] was tested, and the “migration of mast cells in the trachea” value [4] was “induces a migration of mast cells into the sub-epithelial space”, the “migrated mast cells in the lower chamber” value ([2]; histamine in lower chamber (1.25-20 μM), FIG. 1) was “dose-dependent increase in migrated mast cells” and the “shape change in eosinophils” value ([3]; histamine as stimulus) was “induces a dose-dependent shape change”.
In the case of `CN1CCN(C(=O)c2cc3c(Cl)c(Cl)ccc3[nH]2)CC1` [(4,5-Dichloro-1H-indol-2-yl)-(4-methyl-piperazin-1-yl)-methanone], the Ki [1] is reported as 11 nM.
`Cc1csc2cc(C(=O)N3CCN(C)CC3)[nH]c12` [(4-Methyl-piperazin-1-yl)-(3-methyl-4H-thieno[3,2-b]pyrrol-5-yl)-methanone] gave an inhibition at 1 µM [2] of 60%.
`Cc1ccc2[nH]c(C(=O)N3CCN(C)CC3)cc2c1` [(5-Methyl-1H-indol-2-yl)-(4-methyl-piperazin-1-yl)-methanone] showed a Ki [1] of 11 nM.
For `CC1CN(C(=O)c2cc3cc(Cl)ccc3[nH]2)CCN1` (centres unmarked) [(5-Chloro-1H-indol-2-yl)-(3-methyl-piperazin-1-yl)-methanone], the Ki [1] was 41 nM.
With `CNC(=C[N+](=O)[O-])NCCSCc1ccc(CN(C)C)o1` [ranatidine] the “effect on histamine-induced eosinophil shape change” value [3] was “did not alter”, the “Fold Change” value ([3]; histamine 0 μM) was 1.00 and the “Fold Change” value ([3]; histamine 0.01 μM) was 1.04. The “Fold Change” value ([3]; histamine 0.1 μM) was 1.21, the “Fold Change” value ([3]; histamine 1 μM) was 1.49 and the “Fold Change” value ([3]; histamine 10 μM) was 1.64.
For `CN1CCN(C(=O)c2cc3cc(F)ccc3[nH]2)CC1` [(5-Fluoro-1H-indol-2-yl)-(4-methyl-piperazin-1-yl)-methanone], the Ki [1] was 18 nM.
`CC1CN(C(=O)c2cc3cc(Cl)ccc3[nH]2)CCN1C` (centres unmarked) [(5-Chloro-1H-indol-2-yl)-(3,4-dimethyl-piperazin-1-yl)-methanone] gave a Ki [1] of 27 nM.
